We go through 1 compound from publication PMC10056986 (Pharmaceuticals, 2023).

In series [1] the target is CB2 (Homo sapiens, UniProt P34972). The series is described as follows: cell-based.
For series [2], the target named is 5HT1A (Homo sapiens, UniProt P08908). The series is described as follows: cell-based.
Series [3] can be described thus: in vitro. The conditions noted are these: African green monkey.
The target of series [4] is EPHA2 (Homo sapiens, UniProt P29317). Put plainly: biochemical.
Series [5] is described as follows: in vitro. Conditions: human.
Series [6] can be described thus: in vitro. Conditions: dog, CC50 (mean ± SD).
The target of series [7] is T1, Eta (Homo sapiens, UniProt P25101). The series is described as follows: cell-based.
The target of series [8] is T2, 5HT2A (Homo sapiens, UniProt P28223). Put plainly: cell-based.
For series [9], the target named is M1 (Homo sapiens, UniProt P11229). The series is described as follows: cell-based.
The target of series [10] is PDK1 (Homo sapiens, UniProt O15530). The series is described as follows: biochemical.
The target in series [11] is JAK2 (Homo sapiens, UniProt O60674). Put plainly: biochemical.
The target in series [12] is T2, 5HT2A. Put plainly: cell-based. The source holds these as a separate data set.
Series [13] concerns the target M3 (Homo sapiens, UniProt P20309). Put plainly: cell-based.
For series [14], the target named is T1, Eta. The series is described as follows: cell-based. This is another data set of the same source.
Setting [15] is: 10,000 nM, read-out: Inhibition at Maximum Concentration (%).

T1 sequence (P25101 21-427): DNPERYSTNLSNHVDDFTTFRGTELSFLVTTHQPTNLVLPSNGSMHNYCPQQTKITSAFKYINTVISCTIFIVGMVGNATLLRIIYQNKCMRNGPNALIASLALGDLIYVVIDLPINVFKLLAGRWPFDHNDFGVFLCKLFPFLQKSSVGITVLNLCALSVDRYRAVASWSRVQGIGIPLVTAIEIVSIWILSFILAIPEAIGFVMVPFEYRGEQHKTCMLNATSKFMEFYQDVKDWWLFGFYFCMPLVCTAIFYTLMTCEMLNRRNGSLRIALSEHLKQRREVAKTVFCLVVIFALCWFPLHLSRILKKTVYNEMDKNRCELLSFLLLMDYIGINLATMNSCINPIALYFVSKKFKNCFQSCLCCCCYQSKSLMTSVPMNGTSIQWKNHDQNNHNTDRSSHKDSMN
T2 sequence (P28223 whole entry): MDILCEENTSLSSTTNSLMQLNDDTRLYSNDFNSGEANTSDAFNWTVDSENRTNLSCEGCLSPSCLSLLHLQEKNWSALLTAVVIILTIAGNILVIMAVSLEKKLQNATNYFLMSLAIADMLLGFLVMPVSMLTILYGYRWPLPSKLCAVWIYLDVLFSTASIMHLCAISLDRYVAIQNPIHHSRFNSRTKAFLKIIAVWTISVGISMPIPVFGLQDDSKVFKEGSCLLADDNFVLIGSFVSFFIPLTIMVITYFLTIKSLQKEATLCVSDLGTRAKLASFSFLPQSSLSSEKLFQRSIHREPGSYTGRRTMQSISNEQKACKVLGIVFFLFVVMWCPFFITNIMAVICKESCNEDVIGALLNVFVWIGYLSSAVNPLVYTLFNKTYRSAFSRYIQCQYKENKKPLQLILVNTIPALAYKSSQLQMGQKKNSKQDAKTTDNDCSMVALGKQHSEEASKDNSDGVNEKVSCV
M1, sequence (P11229 whole entry): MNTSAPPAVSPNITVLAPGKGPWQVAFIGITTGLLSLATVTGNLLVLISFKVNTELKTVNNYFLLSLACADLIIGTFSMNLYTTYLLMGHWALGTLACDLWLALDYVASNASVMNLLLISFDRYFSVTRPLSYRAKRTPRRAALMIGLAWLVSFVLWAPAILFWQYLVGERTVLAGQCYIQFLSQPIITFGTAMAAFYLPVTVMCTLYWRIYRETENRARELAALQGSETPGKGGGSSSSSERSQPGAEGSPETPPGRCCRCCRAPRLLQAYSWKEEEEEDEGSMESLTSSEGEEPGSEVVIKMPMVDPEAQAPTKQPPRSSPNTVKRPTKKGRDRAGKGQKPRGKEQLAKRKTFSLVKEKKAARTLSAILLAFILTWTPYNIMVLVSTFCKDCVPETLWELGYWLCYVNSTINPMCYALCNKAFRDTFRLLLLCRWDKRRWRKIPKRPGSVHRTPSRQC
5HT1A, sequence (P08908 whole entry): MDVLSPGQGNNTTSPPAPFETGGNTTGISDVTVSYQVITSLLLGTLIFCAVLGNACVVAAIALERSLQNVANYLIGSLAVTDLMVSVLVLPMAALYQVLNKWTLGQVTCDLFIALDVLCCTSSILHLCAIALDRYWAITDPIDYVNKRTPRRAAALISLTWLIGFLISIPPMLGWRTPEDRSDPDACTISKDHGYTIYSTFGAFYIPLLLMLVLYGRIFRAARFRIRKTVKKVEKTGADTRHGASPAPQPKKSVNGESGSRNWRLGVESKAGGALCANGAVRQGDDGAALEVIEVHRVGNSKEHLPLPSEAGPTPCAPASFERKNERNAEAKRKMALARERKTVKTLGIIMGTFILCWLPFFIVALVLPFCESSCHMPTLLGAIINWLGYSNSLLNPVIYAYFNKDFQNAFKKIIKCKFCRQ
CB2, sequence (P34972 whole entry): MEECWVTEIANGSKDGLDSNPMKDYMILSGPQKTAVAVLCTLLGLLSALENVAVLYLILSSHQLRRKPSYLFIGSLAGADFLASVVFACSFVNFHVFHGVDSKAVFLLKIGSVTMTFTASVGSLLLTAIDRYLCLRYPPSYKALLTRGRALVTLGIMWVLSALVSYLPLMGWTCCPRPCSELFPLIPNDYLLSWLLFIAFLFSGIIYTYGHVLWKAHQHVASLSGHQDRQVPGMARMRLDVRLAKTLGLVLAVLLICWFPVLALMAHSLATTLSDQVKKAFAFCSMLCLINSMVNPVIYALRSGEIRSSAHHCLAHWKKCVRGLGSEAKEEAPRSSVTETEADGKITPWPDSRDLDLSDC
M3, sequence (P20309 whole entry): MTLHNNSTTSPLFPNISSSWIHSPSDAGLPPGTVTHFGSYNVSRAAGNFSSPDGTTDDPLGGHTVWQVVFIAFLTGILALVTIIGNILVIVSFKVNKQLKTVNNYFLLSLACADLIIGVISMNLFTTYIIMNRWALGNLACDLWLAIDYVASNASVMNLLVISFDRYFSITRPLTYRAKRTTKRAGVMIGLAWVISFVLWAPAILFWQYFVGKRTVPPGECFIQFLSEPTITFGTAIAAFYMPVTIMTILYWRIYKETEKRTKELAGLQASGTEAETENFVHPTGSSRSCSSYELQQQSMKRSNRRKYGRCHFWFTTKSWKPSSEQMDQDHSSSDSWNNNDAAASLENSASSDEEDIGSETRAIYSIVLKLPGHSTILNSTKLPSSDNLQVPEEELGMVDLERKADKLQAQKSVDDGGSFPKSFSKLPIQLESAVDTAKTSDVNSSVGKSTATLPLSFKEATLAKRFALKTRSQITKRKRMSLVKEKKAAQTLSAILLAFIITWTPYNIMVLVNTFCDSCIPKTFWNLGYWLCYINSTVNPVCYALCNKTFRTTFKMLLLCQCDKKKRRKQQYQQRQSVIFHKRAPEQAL
PDK1, sequence (O15530 whole entry): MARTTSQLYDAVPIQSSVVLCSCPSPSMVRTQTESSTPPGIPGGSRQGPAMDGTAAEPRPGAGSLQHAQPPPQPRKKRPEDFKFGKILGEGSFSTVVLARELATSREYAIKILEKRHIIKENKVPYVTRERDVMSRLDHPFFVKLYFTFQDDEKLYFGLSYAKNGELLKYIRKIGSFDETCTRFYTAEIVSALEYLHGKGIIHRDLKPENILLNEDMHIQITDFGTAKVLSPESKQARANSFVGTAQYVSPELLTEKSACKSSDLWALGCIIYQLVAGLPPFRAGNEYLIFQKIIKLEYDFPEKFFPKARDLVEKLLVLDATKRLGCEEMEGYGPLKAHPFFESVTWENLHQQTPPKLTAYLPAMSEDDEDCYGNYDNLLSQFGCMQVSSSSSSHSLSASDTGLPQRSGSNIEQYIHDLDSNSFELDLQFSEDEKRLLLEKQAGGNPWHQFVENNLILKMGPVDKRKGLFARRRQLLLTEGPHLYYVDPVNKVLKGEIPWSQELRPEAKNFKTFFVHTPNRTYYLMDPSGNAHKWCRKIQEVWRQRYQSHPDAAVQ
JAK2, sequence (O60674 whole entry): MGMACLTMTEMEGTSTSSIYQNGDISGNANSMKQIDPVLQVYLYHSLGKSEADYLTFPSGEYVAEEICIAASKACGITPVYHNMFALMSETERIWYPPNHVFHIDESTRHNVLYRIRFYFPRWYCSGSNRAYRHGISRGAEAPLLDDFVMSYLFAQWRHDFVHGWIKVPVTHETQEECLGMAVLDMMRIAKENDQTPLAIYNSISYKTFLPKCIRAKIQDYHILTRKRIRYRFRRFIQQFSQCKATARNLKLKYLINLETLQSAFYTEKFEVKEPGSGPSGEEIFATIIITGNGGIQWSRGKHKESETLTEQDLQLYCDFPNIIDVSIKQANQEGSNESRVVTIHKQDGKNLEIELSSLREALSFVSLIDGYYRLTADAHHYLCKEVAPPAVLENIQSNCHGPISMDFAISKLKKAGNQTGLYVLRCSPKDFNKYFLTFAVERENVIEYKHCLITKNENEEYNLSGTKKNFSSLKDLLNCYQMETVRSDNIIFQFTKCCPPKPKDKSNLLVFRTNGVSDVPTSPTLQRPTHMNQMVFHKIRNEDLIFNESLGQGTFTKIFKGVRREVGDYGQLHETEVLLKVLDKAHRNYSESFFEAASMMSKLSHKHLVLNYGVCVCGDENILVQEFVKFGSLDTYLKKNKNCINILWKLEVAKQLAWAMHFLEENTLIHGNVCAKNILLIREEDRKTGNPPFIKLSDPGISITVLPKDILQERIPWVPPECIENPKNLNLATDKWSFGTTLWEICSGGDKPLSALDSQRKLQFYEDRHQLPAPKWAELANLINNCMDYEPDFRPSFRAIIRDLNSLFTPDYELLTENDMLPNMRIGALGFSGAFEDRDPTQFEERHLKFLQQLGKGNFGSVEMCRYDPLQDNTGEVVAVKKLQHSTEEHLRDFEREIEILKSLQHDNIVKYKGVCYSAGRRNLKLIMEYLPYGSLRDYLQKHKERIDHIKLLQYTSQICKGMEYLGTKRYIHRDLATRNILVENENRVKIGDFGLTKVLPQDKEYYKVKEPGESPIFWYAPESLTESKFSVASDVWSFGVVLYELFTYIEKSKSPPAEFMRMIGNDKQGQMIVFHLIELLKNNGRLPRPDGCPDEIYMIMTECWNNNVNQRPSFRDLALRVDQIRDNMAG

The IC50 is the concentration that inhibits the measured activity by half. Usually EC50 stands for the midpoint of the concentration-response curve. With `O=C(O)[C@H]1C2CCC(CC2)[C@@H]1Nc1nc(-c2n[nH]c3ncc(F)cc23)nc(C2CC2)c1F` [ZSP1273], the IC50 in series [1], in series [4], in series [7], in series [8], in series [9] and in series [10] was more than 10 µM each time. Also, the IC50 in series [11] was more than 10 µM. In addition, the inhibition at 10 µM in series [1] (setting [15]) was 42%; in series [7] (setting [15]), 9.07%; in [8] (setting [15]), 2.56%; in series [9] (setting [15]), -0.95%. Besides, the EC50 in series [2], in series [12], in series [13] and in series [14] was more than 12 µM in each case. Also, the “Activity at Maximum Concentration (%)” value is listed as 16.98% in [2] (12,000 nM), −21.27% in series [12] (12,000 nM), −2.89% in series [13] (12,000 nM) and −1.16% in [14] (12,000 nM). Moreover, the CC50 in series [3] was more than 10 µM; in series [5], more than 10 µM; in series [6] it was 1.63 ± 0.87 µM.
